Data on one molecule can be found in patent US20180273897A1, “MODIFIED T-CELLS HAVING ANTI-FUGETACTIC PROPERTIES AND USES THEREOF” (THE GENERAL HOSPITAL CORPORATION, priority 2015, published 2018).

The test deals with human CD3+ T cells. The conditions noted are these: T cells pre-incubated with 0.01 μM to 10 mM AMD3100; harvested after 3 h; anti-fugetactic at lower, fugetactic at higher concentrations. The procedure:
For quantitative transmigration assays, purified human CD3^+ T cells (approximately 2×10^4 cells) are added to the upper chamber of a Transwell® insert in each well, to a total volume of 150 μl of Iscove's modified medium. […] To determine the anti-fugetactic concentration of AMD3100, the T cells are incubated with 0.01 μM to 10 mM AMD3100 prior to addition to the chamber. Cells are harvested from the lower chamber after 3 h, and cell counts are performed using a hemocytometer.

As for `c1cc(CN2CCCNCCNCCCNCC2)ccc1CN1CCCNCCNCCCNCC1` [AMD3100, 1,1′[1,4-phenylenebis(methylene)]bis [1,4,8,11-tetraazacyclotetradecane]], the “Effect on T cell migration away from tumor cells (anti-fugetactic versus fugetactic)” value is “bimodal effect”.
